Drawing on ChEMBL document CHEMBL1201862, “PubChem BioAssay data set” (2004), this text covers IC50, AC50 and EC50 for 14 compounds.

Calls of active or inactive are those of the source.

Assay [1] deals with T1, High affinity choline transporter 1 (Homo sapiens, UniProt Q9GZV3).
T1 sequence (Q9GZV3 whole entry): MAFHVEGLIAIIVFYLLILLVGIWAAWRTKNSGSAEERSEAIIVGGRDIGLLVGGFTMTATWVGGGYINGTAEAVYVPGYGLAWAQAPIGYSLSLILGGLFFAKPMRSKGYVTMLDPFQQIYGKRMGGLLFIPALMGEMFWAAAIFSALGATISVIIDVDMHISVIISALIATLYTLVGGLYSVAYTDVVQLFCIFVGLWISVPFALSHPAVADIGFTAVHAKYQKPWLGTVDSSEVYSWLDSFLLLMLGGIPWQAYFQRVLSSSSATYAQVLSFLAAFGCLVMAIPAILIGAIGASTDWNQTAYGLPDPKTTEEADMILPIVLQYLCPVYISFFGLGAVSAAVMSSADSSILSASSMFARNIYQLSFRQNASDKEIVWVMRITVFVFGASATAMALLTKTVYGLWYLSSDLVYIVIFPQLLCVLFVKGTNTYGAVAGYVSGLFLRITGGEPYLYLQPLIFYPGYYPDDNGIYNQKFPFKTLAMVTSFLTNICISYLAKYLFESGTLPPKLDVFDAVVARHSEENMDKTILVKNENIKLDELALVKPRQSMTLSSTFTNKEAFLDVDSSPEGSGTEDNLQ
Description: human choline transporter blockers, potency – cell-based, 5-point CRC, membrane potential dye, dose response (AID 504840). It counts as functional.

Another assay addresses T2, Aminopeptidase N (Plasmodium falciparum FcB1/Columbia, UniProt O96935).
T2 sequence (O96935 whole entry): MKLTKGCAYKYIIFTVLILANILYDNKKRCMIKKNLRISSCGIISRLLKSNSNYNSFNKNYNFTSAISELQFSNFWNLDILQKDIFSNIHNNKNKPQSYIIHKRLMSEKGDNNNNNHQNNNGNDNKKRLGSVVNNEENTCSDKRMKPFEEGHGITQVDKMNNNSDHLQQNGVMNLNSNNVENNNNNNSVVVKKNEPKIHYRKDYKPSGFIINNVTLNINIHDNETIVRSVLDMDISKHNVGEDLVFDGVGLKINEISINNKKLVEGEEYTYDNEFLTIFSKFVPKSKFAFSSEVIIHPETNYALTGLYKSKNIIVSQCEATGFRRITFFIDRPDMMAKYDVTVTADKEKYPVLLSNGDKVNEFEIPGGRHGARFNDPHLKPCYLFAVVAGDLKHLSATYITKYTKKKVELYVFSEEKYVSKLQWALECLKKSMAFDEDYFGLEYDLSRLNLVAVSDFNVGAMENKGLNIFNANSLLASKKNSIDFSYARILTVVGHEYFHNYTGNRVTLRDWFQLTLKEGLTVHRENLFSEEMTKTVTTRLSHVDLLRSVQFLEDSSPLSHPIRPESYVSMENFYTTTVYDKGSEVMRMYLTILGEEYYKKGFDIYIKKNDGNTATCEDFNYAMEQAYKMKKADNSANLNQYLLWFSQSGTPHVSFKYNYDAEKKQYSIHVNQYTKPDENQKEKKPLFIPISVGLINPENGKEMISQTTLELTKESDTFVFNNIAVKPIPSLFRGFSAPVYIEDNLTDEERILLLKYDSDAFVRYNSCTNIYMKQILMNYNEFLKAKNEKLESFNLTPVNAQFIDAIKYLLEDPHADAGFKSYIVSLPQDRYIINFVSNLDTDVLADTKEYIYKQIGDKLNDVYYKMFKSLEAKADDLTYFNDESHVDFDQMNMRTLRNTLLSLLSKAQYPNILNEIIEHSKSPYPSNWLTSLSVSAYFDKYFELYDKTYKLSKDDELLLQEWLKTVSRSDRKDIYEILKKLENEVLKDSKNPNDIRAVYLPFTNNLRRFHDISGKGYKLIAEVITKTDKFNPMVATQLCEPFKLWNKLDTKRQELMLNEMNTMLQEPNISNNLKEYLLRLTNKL
Description: malaria alanyl aminopeptidase activity blockers – biochemical, fluorogenic H-Leu-NHMec substrate, 1536-well (AID 1445). Also noted: species or system Plasmodium falciparum 3D7, 3D7.

The nature of assay [2]: HEK-293T viability loss after treatment – luminescence, T-cell screen hits, cytotoxicity control for TCR NF-kB inhibitor project, dose response (AID 489026).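 Further: cells exposed to compound about 14 hours before the viability readout.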 It counts as functional, cell-based.
In assay [3] the target is Heat shock protein HSP 90-alpha (Homo sapiens, UniProt P07900). The format is functional, organism-based.
For the next assay, the target named is Nonstructural protein 1 (Influenza A virus, UniProt Q194T2). The format is functional, Influenza A virus (A/California/07/2009(H1N1)).
Sequence of Nonstructural protein 1 (Q194T2 whole entry): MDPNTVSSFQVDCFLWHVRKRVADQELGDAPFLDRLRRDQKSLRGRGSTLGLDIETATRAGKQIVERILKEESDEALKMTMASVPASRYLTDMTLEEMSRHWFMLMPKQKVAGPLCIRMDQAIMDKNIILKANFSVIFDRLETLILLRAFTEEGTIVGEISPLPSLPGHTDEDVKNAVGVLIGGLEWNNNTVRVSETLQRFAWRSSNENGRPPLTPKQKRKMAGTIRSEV
The next assay addresses T3, Streptokinase A (Streptococcus pyogenes serotype M1, UniProt P10520).
T3 sequence (P10520 whole entry): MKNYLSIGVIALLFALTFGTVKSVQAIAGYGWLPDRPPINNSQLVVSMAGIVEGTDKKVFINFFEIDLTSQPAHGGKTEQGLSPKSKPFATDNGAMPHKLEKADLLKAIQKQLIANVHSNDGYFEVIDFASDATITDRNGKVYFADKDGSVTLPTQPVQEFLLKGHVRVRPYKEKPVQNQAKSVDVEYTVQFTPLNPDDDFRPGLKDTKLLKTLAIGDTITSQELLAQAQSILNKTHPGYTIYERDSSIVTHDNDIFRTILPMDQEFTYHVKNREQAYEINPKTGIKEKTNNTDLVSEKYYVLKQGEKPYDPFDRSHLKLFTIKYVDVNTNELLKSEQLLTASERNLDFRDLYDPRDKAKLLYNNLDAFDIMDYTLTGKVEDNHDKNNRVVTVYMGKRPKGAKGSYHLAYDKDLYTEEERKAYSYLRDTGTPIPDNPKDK
Description: viability-normalized secreted streptokinase activity reduction – plasminogen activation absorbance, OD405, dose response (AID 1914).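 Further: secreted streptokinase activity via plasminogen activation per viability signal from cell pellet.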 The format is functional, Streptococcus pyogenes M1 GAS.

A further assay has as its system Streptococcus. The assay is described as follows: GAS UMAA2166 growth inhibition – luminescence, BacTiterGlo, counter-screen for streptokinase expression inhibitor project, dose response (AID 1915).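 Further: potency for reduction of bacterial viability or growth.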 The format is functional, organism-based. (A counterscreen serves to expose hits that act by an unwanted route or on another target.)
For assay [4], the target named is T4, Zinc finger protein mex-5 (Caenorhabditis elegans, UniProt Q9XUB2).
T4 sequence (Q9XUB2 whole entry): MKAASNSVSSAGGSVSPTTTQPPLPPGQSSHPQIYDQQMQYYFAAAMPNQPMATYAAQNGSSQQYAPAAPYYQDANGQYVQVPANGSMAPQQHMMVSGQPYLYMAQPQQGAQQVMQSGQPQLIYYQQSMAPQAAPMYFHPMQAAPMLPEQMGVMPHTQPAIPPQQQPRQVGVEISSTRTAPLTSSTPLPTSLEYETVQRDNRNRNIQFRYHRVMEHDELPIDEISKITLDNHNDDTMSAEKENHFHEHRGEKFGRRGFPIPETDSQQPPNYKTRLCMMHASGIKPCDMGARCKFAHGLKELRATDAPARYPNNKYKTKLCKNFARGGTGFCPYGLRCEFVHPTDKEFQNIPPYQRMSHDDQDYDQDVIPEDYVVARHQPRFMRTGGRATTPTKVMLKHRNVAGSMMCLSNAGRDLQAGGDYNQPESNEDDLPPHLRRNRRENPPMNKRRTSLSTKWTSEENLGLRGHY
The assay is described as follows: potency of MEX-5 RNA-binding blockers – biochemical, C. elegans, fluorescence polarization, dose response (AID 1960). On the technique in general: Fluorescence polarisation rises when a labelled molecule tumbles more slowly, as on binding a larger partner.

Another assay has as its system INS1. The assay is described as follows: INS-1E survival protection against cytokine death – cell-based, luminescence, retest, dose response (AID 449756).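 Further: cell death triggered by IL-1 beta plus TNF-alpha plus IFN-gamma mixture; protective hits raise ATP signal compared with cytokine alone wells.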 As to conditions: Rattus norvegicus. The format is functional.
Assay [5] relates to Streptococcus sp. 'group A'. The assay is described as follows: Streptococcus pyogenes SK(-)GAS viability under kanamycin – luminescence, BacTiterGlo, confirmation, counter-screen for streptokinase expression inhibitor project, dose response (AID 1900). It counts as functional, organism-based.
In assay [6] the target is T5, RNA-binding protein pos-1 (Caenorhabditis elegans, UniProt G5EF15).
T5 sequence (G5EF15 whole entry): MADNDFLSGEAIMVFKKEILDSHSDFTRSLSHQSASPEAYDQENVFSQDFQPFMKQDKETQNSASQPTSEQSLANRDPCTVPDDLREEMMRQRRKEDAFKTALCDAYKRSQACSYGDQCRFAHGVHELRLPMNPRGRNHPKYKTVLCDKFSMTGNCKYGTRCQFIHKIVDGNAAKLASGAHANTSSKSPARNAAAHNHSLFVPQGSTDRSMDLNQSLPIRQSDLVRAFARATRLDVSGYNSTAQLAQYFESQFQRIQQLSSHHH
The assay is described as follows: disruptors of C. elegans POS-1 RNA interaction – biochemical, fluorescence polarization, dose response (AID 1964).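 Further: purified POS-1 fused to maltose binding protein made in E. coli; potency of compounds blocking POS-1 binding to fluorescent RNA.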

Assay [7] in a line: non-specific 3'UTR reporter inhibition in Clone20-Shn3RL – cell-based, Renilla luciferase, cherry-picked, counter-screen for Shn3 inhibitor project, dose response (AID 624133). It counts as functional.
Assay [8] in a line: reduction of Shn3 3'UTR-driven luciferase in osteoblasts – cell-based, Clone20 osteoblasts, firefly luciferase, cherry-picked, dose response (AID 624132).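 Further: firefly luciferase luminescence from reporter carrying the Shn3 3'UTR in osteoblasts.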 The format is functional.
Assay [9] is described as follows: loss of viability in HepG2 cells – cell-based, CellTiter-Glo, cherry-picked, cytotoxicity control for Shn3 inhibitor project, dose response (AID 624134). It counts as functional.
The nature of a further assay: cells. The format is functional.

Consider `CCc1c(C)nc2ccccc2c1O`, for which the IC50 in [1] is 13.2 µM (active).

Turning to `COCCNc1oc(/C=C/c2ccccc2)nc1C#N`, the half-maximal inhibitory concentration (IC50) at Aminopeptidase N is 36.7 µM (active). With `Cc1ccc(N=C(N)Nc2nc(O)cc(CSc3nnc(C)s3)n2)c(C)c1`, the IC50 in assay [2] is > 80 µM (inactive). In the case of `COc1cc2cnc(-c3ccccc3)c(C(=O)c3ccc(F)cc3)c2cc1OC`, the AC50 in assay [3] is 2.12 µM (active). On to `COC(=O)c1ccc(CSc2nc3c(c(=O)n2-c2ccccc2)SCC3)o1`, for which, on Nonstructural protein 1, the IC50 is > 100 µM (active). For the compound `Cc1ccc(Oc2nc(-c3ccccn3)nc3ccccc23)cc1`, the EC50 on Streptokinase A is > 150 µM (not active); in the assay on Streptococcus, > 150 µM (not active); in [4], 6.96 µM (active); in [5] it was 8.8 µM (active); in assay [6], > 300 µM (inconclusive). Moreover, the AC50 with INS1 is 1.78 µM (active). Turning to `O=C(c1ccc2c(=O)n(-c3ccccc3)c(=S)[nH]c2c1)N1CCCCC1`, the AC50 is 3.14 µM (active) in [7], 1.44 µM (active) in assay [8] and 64.2 µM (active) in assay [9]. `O=C(CCSc1nnc(-c2ccncc2)o1)Nc1ccc(Cl)cc1`: the AC50 in [3] is 1.65 µM (active). Further, in “cells”, the IC50 is 29.5 µM (active). With `Cc1ccc(C[S+]([O-])Cc2ccc(C(=O)NC3CCCCCC3)o2)cc1` (configuration not stated), the IC50 in assay [1] is 14.5 µM (active).

For `O=C(Nn1c(SCc2ccc(F)cc2)nc2ccsc2c1=O)c1ccccc1`, on Aminopeptidase N, the IC50 is 55.6 µM (active). For `O=C1N=C(NS(=O)(=O)c2ccccc2)S/C1=C1\C(=O)Nc2ccccc21`, the IC50 at Aminopeptidase N was 25.1 µM (active).

Turning to `Cc1ccc(-c2cc(C(F)F)n3ncc(C(=O)N4CCc5ccccc54)c3n2)cc1`, the IC50 in assay [2] is > 80 µM (inactive). With `CCn1c(CNC(=O)c2cccs2)nnc1SCC(=O)Nc1cc(Cl)ccc1C`, the concentration for half-maximal inhibition (IC50) on Aminopeptidase N was 6.86 µM (active).

For `COc1ccc(CCN2C(=O)C3C4C=CC(C3C2=O)C2C(=O)N(CCc3ccc(OC)c(OC)c3)C(=O)C42)cc1OC` (configuration not stated), the IC50 in [2] was > 80 µM (inactive).

As a reminder, the IC50 is the concentration at which inhibition is half-maximal. For orientation: AC50 means the midpoint of the concentration-response curve, whichever way the signal moves. One may read the EC50 as the concentration that produces a half-maximal response.
